According to ChEMBL document CHEMBL3430912, “GSK Tres Cantos Anti-Kinetoplastid Screening (TCAKS) Data”:

Columns and labels:
[1] = GSK_TCAKS: pIC50 HepG2 human cell line viability assay using luminiscence. […] Seeding density was checked to ensure that new mono-layers were not more than 50% confluent at the time of harvesting. Cell suspension was added to 500 mL of the same medium at a final density of 1.2 * 10^5 cells/mL. This cell suspension was dispensed (25 uL, 3000 cells per well) into 384-well clear-bottom plates using a Multidrop Combi dispenser. Prior to addition of the cell suspension, the screening compounds (250 nL) were pre-dispensed into the plates with an Echo liquid handler. Plates were incubated for 48 h at 37C, 5% CO2. After incubation, plates equilibrated at room temperature for 30 min before proceeding to develop the luminescent signal. The signal developer, CellTiter-Glo Reagent, was allowed to equilibrate at room temperature for 30 min and added to the plates (25uL per well) using a Multidrop Combi dispenser. Plates were left for 10 min at room temperature for stabilization and then read using a ViewLux.; type: toxicity, cell-based
Trypanosoma cruzi [2] = experiment: (§1) GSK_TCAKS: pIC50 Trypanosoma cruzi Imaging: Infected Cells. […] Cells were then washed once with PBS before infection. T. cruzi trypomastigotes, collected at days 5 to 8 after infection from LLC-MK2 parasite infected cultures, were allowed to swim out for 4h at 37C from a centrifuged pellet (2,500 rpm/10 min/room temperature). Trypomastigotes were then collected and counted in a CASY Cell Counter. Trypomastigotes, in supplemented DMEM, were added to H9c2 cultures in a multiplicity of infection of 1 and incubated for 18 h. Cells were washed once with PBS before incubation of the infected H9c2 monolayer with trypsin (Life-Technologies) to detach cells from the flask. Cells were counted in a CASY Cell Counter using a 150 um capillary and their density set at 5 * 10^4 cells per mL in supplemented assay DMEM. Infected H9c2 were dispensed into 384-well poly-lysine coated assay plates at 50uL per well using a Multidrop Combi dispenser. After seeding them, the plates were incubated at 37C, 5% CO2 for 72h. Cultures were then fixed and stained by addition of 50 uL of a solution containing 8% formaldehyde and 4 uM DRAQ5 DNA dye (BioStatus, UK) per well. […] Five images were collected per well for reliable statistical analysis. Automated image analysis was performed with a script developed on Acapella High Content Imaging and Analysis Software (PerkinElmer). Output: percentage of infected cells per well as a second infection marker.; type: functional, organism-based, Rattus norvegicus; details: H9c2, 4 h
Leishmania donovani [3] = experiment: GSK_TCAKS: pIC50 Leishmania donovani viability assay using fluorescence intensity. Assay plates (1536-well) were prepared by adding 30nL per well of compound. For single shot assay, the final compound concentration was 5uM. […] Briefly, eGFP LdBOB axenic amastigotes were harvested, fixed and counted in a CASY cell counter (Roche-Applied Science). A final concentration of 1.5 * 10^5 cells per well were prepared in amastigote media containing 500 U/mL penicillin/streptomycin (Invitrogen) and 6uL was dispensed to each experimental well using a Multidrop Combi dispenser (Thermo Scientific). 6uL of assay media was dispensed to control columns used as reference for 100% compound response. Following incubation for 72 h at 37C, 5% CO2, 2 uL of resazurin was added to each well at a final concentration of 0.5 mM in phosphate buffered saline (PBS) with IGEPAL (Sigma-Aldrich), 0.05% (v/v).; type: functional, organism-based
[4] = test system: Trypanosoma brucei brucei; experiment: GSK_TCAKS: pIC50 Trypanosoma brucei viability assay using luminiscence. Assay plates (1536-well) were prepared. T. brucei cultures were harvested and counted in a CASY cell counter. A parasite suspension was prepared at a final concentration of 5 * 10^4 cells/mL in complete HMI9 medium and 6uL was dispensed to all wells containing compounds using a Multidrop Combi dispenser. 6uL of HMI9 media with 0.4% DMSO were dispensed to control columns. Plates were incubated for 24 h at 37C, 5% CO2 then tempered for 10 min at room temperature. ATP content was quantified by adding 4 uL of CellTiter-Glo Reagent (Promega) according to the manufacturer's instructions. Luminescence was measured using a ViewLux.; type: functional, organism-based; details: Lister 427, CASY
Trypanosoma cruzi [5] = experiment: GSK_TCAKS: pIC50 Trypanosoma cruzi viability assay using beta-GAL activity. This assay was run at single shot at 5uM compound concentration per well. The biological reagents consisted of NIH-3T3 host cells and trypomastigotes parasitic cells; both cell types were set to a 3.3 * 10^5 cells/mL dilution in assay DMEM by means of a CASY cell counter device using a 60um capillary. 6 uL of the mixture were dispensed per well (about 1 * 10^3 host-cells and 1 * 10^3 parasites) with a Multidrop Combi dispenser. […] In all wells, the percentage of DMSO never exceeded 0.5%. Plates incubated for four days at 37C, 5% CO2. The substrate used for the assay fluorescence intensity (FLINT) readout was resorufin-beta-D-galactopiranoside (Sigma-Aldrich) at 5uM per well. It was diluted in PBS supplemented with the soft detergent Igepal (Fluka).; type: functional, organism-based, Mus musculus; details: Tulahuen, NIH3T3
Leishmania donovani [6] = experiment: GSK_TCAKS: pIC50 Leishmania donovani Imaging: Amastigotes/Macrophages. Assay plates (384-well) were prepared by adding 250nL of compound to each well. For single shot assay, the final compound concentration was 5 uM. […] Automated image analysis was performed with a script developed on Acapella High Content Imaging and Analysis Software (PerkinElmer). Output: Average number of amastigotes per macrophage cell were reported for each well.; type: functional, organism-based, Homo sapiens; details: THP-1
Trypanosoma cruzi [7] = experiment: GSK_TCAKS: pIC50 Trypanosoma cruzi Imaging: Amastigotes/Cell. […] Cells were then washed once with PBS before infection. T. cruzi trypomastigotes, collected at days 5 to 8 after infection from LLC-MK2 parasite infected cultures, were allowed to swim out for 4h at 37C from a centrifuged pellet (2,500 rpm/10 min/room temperature). Trypomastigotes were then collected and counted in a CASY Cell Counter. Trypomastigotes, in supplemented DMEM, were added to H9c2 cultures in a multiplicity of infection of 1 and incubated for 18 h. Cells were washed once with PBS before incubation of the infected H9c2 monolayer with trypsin (Life-Technologies) to detach cells from the flask. Cells were counted in a CASY Cell Counter using a 150 um capillary and their density set at 5 * 10^4 cells per mL in supplemented assay DMEM. Infected H9c2 were dispensed into 384-well poly-lysine coated assay plates at 50uL per well using a Multidrop Combi dispenser. After seeding them, the plates were incubated at 37C, 5% CO2 for 72h. Cultures were then fixed and stained by addition of 50 uL of a solution containing 8% formaldehyde and 4 uM DRAQ5 DNA dye (BioStatus, UK) per well. […] Five images were collected per well for reliable statistical analysis. Automated image analysis was performed with a script developed on Acapella High Content Imaging and Analysis Software (PerkinElmer). Output: number of amastigotes per cell as infection level measurement.; type: functional, organism-based, Rattus norvegicus; details: H9c2, 4 h
Leishmania donovani [8] = experiment: GSK_TCAKS: pIC50 Leishmania donovani Imaging: THP-1 Host Macrophages. Assay plates (384-well) were prepared by adding 250nL of compound to each well. For single shot assay, the final compound concentration was 5 uM. […] Automated image analysis was performed with a script developed on Acapella High Content Imaging and Analysis Software (PerkinElmer). Output: THP-1 cell count were reported for each well.; type: functional, organism-based, Homo sapiens
Leishmania donovani [9] = experiment: GSK_TCAKS: pIC50 Leishmania donovani Imaging: Infected Macrophages. Assay plates (384-well) were prepared by adding 250nL of compound to each well. For single shot assay, the final compound concentration was 5 uM. […] Automated image analysis was performed with a script developed on Acapella High Content Imaging and Analysis Software (PerkinElmer). Output: Percent of infected macrophage cells were reported for each well.; type: functional, organism-based, Homo sapiens; details: THP-1
Trypanosoma cruzi [10] = experiment: as §1, with “H2C9” for “Trypanosoma cruzi”, “H9c2 Host Cardiomyocytes.” for “Infected Cells.”, “Number” for “percentage”, “H9c2 Host Cardiomyocytes nuclei to determine drug-related cytotoxicity.” for “infected cells per well as a second infection marker.”; type: functional, organism-based, Rattus norvegicus; details: H9c2, 4 h
[11] = test system: Trypanosoma brucei brucei; experiment: GSK_TCAKS: pIC50 Trypanosoma brucei viability assay using fluorescence intensity. Assay plates (1536-well) were prepared by dispensing 25nL of compound solution per well using an Echo acoustic dispenser (Labcyte).; type: functional, organism-based; details: Lister 427, 2 h
[12] = target: Sterol 14-alpha demethylase (Trypanosoma cruzi (strain CL Brener), UniProt Q7Z1V1); experiment: GSK_TCAKS: pIC50 CYP51 from Trypanosoma cruzi.; type: functional
Sequence of Sterol 14-alpha demethylase (Q7Z1V1 whole entry): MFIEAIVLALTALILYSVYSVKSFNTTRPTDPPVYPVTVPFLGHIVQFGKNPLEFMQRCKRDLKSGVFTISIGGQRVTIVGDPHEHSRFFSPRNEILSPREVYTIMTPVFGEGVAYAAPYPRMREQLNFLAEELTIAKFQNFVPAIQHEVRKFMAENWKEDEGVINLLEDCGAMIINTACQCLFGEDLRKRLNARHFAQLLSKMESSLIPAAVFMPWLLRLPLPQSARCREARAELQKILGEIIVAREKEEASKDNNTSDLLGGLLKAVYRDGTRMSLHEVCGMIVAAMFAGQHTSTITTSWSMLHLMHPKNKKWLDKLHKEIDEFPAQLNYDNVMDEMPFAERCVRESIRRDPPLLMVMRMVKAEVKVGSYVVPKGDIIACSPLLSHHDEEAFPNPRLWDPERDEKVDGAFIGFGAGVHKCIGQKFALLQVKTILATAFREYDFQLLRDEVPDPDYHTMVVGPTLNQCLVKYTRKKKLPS

Row | Structure (SMILES) | IC50 at 48 h [1] [µM] | IC50 (Trypanosoma cruzi [2]) [µM] | IC50 (Leishmania donovani [3]) [µM] | IC50 [4] [µM] | IC50 (Trypanosoma cruzi [5]) [µM] | IC50 (Leishmania donovani [6]) [µM] | IC50 (Trypanosoma cruzi [7]) [µM] | IC50 (Leishmania donovani [8]) [µM] | IC50 (Leishmania donovani [9]) [µM] | IC50 (Trypanosoma cruzi [10]) [µM] | IC50 [11] [µM] | IC50 [12] [µM]
1 | Cc1cc2nc(N3CC[C@H]3C(N)=O)nc(Nc3cc(C4CC4)[nH]n3)c2s1 | > 100 | 7.94 | 0.794 | 0.126 | 6.31 | 1.26 | 3.98 | 0.794 | 2 | 0.501 | 0.0794 | > 100
2 | COc1ccc(-c2cc(C)no2)cc1S(=O)(=O)Nc1ccc(C)c(C)c1 | > 100 | 7.94 | 7.94 | 20 | 5.01 | 2 | 5.01 | > 50.1 | 2.51 | 15.8 | 20 | 15.8
3 | COc1ccc(-c2cnc(C)o2)cc1S(=O)(=O)Nc1ccc(C)cc1C | > 100 | 3.16 | 3.98 | 31.6 | 2.82 | 2.51 | 3.16 | > 50.1 | 3.16 | > 50.1 | 6.31 | 25.1
4 | CNc1nc(C)nc(N2CCc3cc(C(=O)NCc4ccc(-c5cc[nH]n5)cc4Cl)ccc32)n1 | > 100 | > 50.1 | 2.51 | 10 | > 50.1 | 0.398 | > 50.1 | > 50.1 | 0.316 | 20 | 12.6 | 5.01
5 | O=C(c1cccc(Nc2ncc(-c3ccc4c(c3)OCO4)cn2)c1)N1CCOCC1 | > 126 | 1.26 | 2 | > 50.1 | 6.31 | 1.58 | 0.794 | > 63.1 | 3.98 | 6.31 | 25.1 | 20
6 | O=C1CN(C(=O)c2cccc(Nc3ncc(-c4ccc5c(c4)OCO5)cn3)c2)CCN1 | > 126 | 0.794 | 1.58 | > 50.1 | 1.58 | 2 | 0.501 | > 63.1 | 5.01 | > 63.1 | > 50.1 | 25.1
7 | O=C(Nc1nc2ccccc2[nH]1)c1ccc2[nH]cnc2c1 | 50.1 | > 50.1 | 2.51 | > 39.8 | 25.1 | 3.16 | 50.1 | > 50.1 | 5.01 | > 50.1 | > 39.8 | 5.01
8 | CNc1nc(C)nc(N2CCc3cc(C(=O)NCc4ccc(-c5nccn5C)cc4Cl)ccc32)n1 | 31.6 | 12.6 | 5.01 | 20 | 5.01 | 0.794 | 5.01 | 25.1 | 0.794 | 50.1 | 12.6 | 1.58
9 | COc1ncc(-c2ccc3ncnc(N4CCOCC4)c3c2)cc1NS(C)(=O)=O | > 100 | 6.31 | 3.16 | 0.501 | 0.501 | 0.631 | 2.51 | 1 | 5.01 | 1.58 | 0.316 | 39.8
10 | COc1ccc(CNc2nsc3ccccc23)cc1OC | 50.1 | 25.1 | 3.16 | 6.31 | 6.31 | 5.01 | 20 | 25.1 | 6.31 | > 50.1 | 7.94 | 12.6
11 | CC1CN(Cc2ccc(C#N)cc2)CCN1c1ccc(NC(=O)c2ccccc2F)cc1 (configuration not stated) | > 100 | > 50.1 | 39.8 | > 39.8 | 25.1 | 5.01 | > 50.1 | > 50.1 | 10 | > 50.1 | > 39.8 | 31.6
